# Reference: PubChem BioAssay (NCI)
#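 Exposure lasted 48 hours, with cells grown in 96-well plates and compounds tested at five concentrations. At the TGI there is no net growth.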
# System: 786-0 renal
# Test: DTP human tumour cell line panel, 48 h
row,SMILES,TGI [µM]
1,CCOC(=O)C1C(O)CC2c3ccccc3-c3ccccc3C21 (stereo unspecified),89
2,CC/C=C/C[C@H](O[Si](C)(C)C(C)(C)C)[C@H]1C[C@H]2O[C@H]([C@@H](O)C#C[Si](C)(C)C)C[C@H]2O1,28
3,COc1ccc(NC2=NCCO2)c2c1CCCC2,> 100
4,O=c1cc(-c2ccccc2)c2ccc(O)c(CN(CCCl)CCCl)c2o1,39.3
5,CC1=C(O)C(=O)C(C2=C(O)C(=O)C(C)=C(O)C2=O)=C(O)C1=O,> 100

# System: A498 renal
# Test: DTP human tumour cell line panel, 48 h
row,SMILES,TGI [µM]
1,CCOC(=O)C1C(O)CC2c3ccccc3-c3ccccc3C21 (stereo unspecified),68.9
2,CC/C=C/C[C@H](O[Si](C)(C)C(C)(C)C)[C@H]1C[C@H]2O[C@H]([C@@H](O)C#C[Si](C)(C)C)C[C@H]2O1,32.8
3,COc1ccc(NC2=NCCO2)c2c1CCCC2,> 100
4,O=c1cc(-c2ccccc2)c2ccc(O)c(CN(CCCl)CCCl)c2o1,41.6
5,CC1=C(O)C(=O)C(C2=C(O)C(=O)C(C)=C(O)C2=O)=C(O)C1=O,> 100

# System: A549 NSCLC
# Test: DTP human tumour cell line panel, 48 h
row,SMILES,TGI [µM]
1,CCOC(=O)C1C(O)CC2c3ccccc3-c3ccccc3C21 (stereo unspecified),> 100
2,CC/C=C/C[C@H](O[Si](C)(C)C(C)(C)C)[C@H]1C[C@H]2O[C@H]([C@@H](O)C#C[Si](C)(C)C)C[C@H]2O1,21.8
3,COc1ccc(NC2=NCCO2)c2c1CCCC2,> 100
4,O=c1cc(-c2ccccc2)c2ccc(O)c(CN(CCCl)CCCl)c2o1,57.3

# System: ACHN renal
# Test: DTP human tumour cell line panel, 48 h
row,SMILES,TGI [µM]
1,CCOC(=O)C1C(O)CC2c3ccccc3-c3ccccc3C21 (stereo unspecified),> 100
2,CC/C=C/C[C@H](O[Si](C)(C)C(C)(C)C)[C@H]1C[C@H]2O[C@H]([C@@H](O)C#C[Si](C)(C)C)C[C@H]2O1,29
3,COc1ccc(NC2=NCCO2)c2c1CCCC2,> 100
4,O=c1cc(-c2ccccc2)c2ccc(O)c(CN(CCCl)CCCl)c2o1,64
5,CC1=C(O)C(=O)C(C2=C(O)C(=O)C(C)=C(O)C2=O)=C(O)C1=O,> 100

# System: BT-549 breast
# Test: DTP human tumour cell line panel, 48 h
row,SMILES,TGI [µM]
1,CCOC(=O)C1C(O)CC2c3ccccc3-c3ccccc3C21 (stereo unspecified),> 100
2,CC/C=C/C[C@H](O[Si](C)(C)C(C)(C)C)[C@H]1C[C@H]2O[C@H]([C@@H](O)C#C[Si](C)(C)C)C[C@H]2O1,33.4
3,COc1ccc(NC2=NCCO2)c2c1CCCC2,> 100
4,O=c1cc(-c2ccccc2)c2ccc(O)c(CN(CCCl)CCCl)c2o1,25
5,CC1=C(O)C(=O)C(C2=C(O)C(=O)C(C)=C(O)C2=O)=C(O)C1=O,> 100

# System: CAKI-1 renal
# Test: DTP human tumour cell line panel, 48 h
row,SMILES,TGI [µM]
1,CCOC(=O)C1C(O)CC2c3ccccc3-c3ccccc3C21 (stereo unspecified),> 100
2,CC/C=C/C[C@H](O[Si](C)(C)C(C)(C)C)[C@H]1C[C@H]2O[C@H]([C@@H](O)C#C[Si](C)(C)C)C[C@H]2O1,24.2
3,COc1ccc(NC2=NCCO2)c2c1CCCC2,> 100
4,O=c1cc(-c2ccccc2)c2ccc(O)c(CN(CCCl)CCCl)c2o1,29.1
5,CC1=C(O)C(=O)C(C2=C(O)C(=O)C(C)=C(O)C2=O)=C(O)C1=O,> 100

# System: CCRF-CEM leukemia
# Test: DTP human tumour cell line panel, 48 h
row,SMILES,TGI [µM]
1,CCOC(=O)C1C(O)CC2c3ccccc3-c3ccccc3C21 (stereo unspecified),> 100
2,CC/C=C/C[C@H](O[Si](C)(C)C(C)(C)C)[C@H]1C[C@H]2O[C@H]([C@@H](O)C#C[Si](C)(C)C)C[C@H]2O1,> 100
3,COc1ccc(NC2=NCCO2)c2c1CCCC2,86
4,O=c1cc(-c2ccccc2)c2ccc(O)c(CN(CCCl)CCCl)c2o1,20.7
5,CC1=C(O)C(=O)C(C2=C(O)C(=O)C(C)=C(O)C2=O)=C(O)C1=O,> 100

# System: COLO 205 colon
# Test: DTP human tumour cell line panel, 48 h
row,SMILES,TGI [µM]
1,CCOC(=O)C1C(O)CC2c3ccccc3-c3ccccc3C21 (stereo unspecified),> 100
2,CC/C=C/C[C@H](O[Si](C)(C)C(C)(C)C)[C@H]1C[C@H]2O[C@H]([C@@H](O)C#C[Si](C)(C)C)C[C@H]2O1,28.2
3,COc1ccc(NC2=NCCO2)c2c1CCCC2,> 100
4,O=c1cc(-c2ccccc2)c2ccc(O)c(CN(CCCl)CCCl)c2o1,25.9
5,CC1=C(O)C(=O)C(C2=C(O)C(=O)C(C)=C(O)C2=O)=C(O)C1=O,> 100

# System: DU-145 prostate
# Test: DTP human tumour cell line panel, 48 h
row,SMILES,TGI [µM]
1,CCOC(=O)C1C(O)CC2c3ccccc3-c3ccccc3C21 (stereo unspecified),> 100
2,CC/C=C/C[C@H](O[Si](C)(C)C(C)(C)C)[C@H]1C[C@H]2O[C@H]([C@@H](O)C#C[Si](C)(C)C)C[C@H]2O1,28.3
3,COc1ccc(NC2=NCCO2)c2c1CCCC2,> 100
4,O=c1cc(-c2ccccc2)c2ccc(O)c(CN(CCCl)CCCl)c2o1,> 100
5,CC1=C(O)C(=O)C(C2=C(O)C(=O)C(C)=C(O)C2=O)=C(O)C1=O,> 100

# System: EKVX NSCLC
# Test: DTP human tumour cell line panel, 48 h
row,SMILES,TGI [µM]
1,CCOC(=O)C1C(O)CC2c3ccccc3-c3ccccc3C21 (stereo unspecified),> 100
2,CC/C=C/C[C@H](O[Si](C)(C)C(C)(C)C)[C@H]1C[C@H]2O[C@H]([C@@H](O)C#C[Si](C)(C)C)C[C@H]2O1,25.9
3,COc1ccc(NC2=NCCO2)c2c1CCCC2,> 100
4,O=c1cc(-c2ccccc2)c2ccc(O)c(CN(CCCl)CCCl)c2o1,59.1
5,CC1=C(O)C(=O)C(C2=C(O)C(=O)C(C)=C(O)C2=O)=C(O)C1=O,> 100

# System: HCC-2998 colon
# Test: DTP human tumour cell line panel, 48 h
row,SMILES,TGI [µM]
1,CC/C=C/C[C@H](O[Si](C)(C)C(C)(C)C)[C@H]1C[C@H]2O[C@H]([C@@H](O)C#C[Si](C)(C)C)C[C@H]2O1,35.1
2,COc1ccc(NC2=NCCO2)c2c1CCCC2,> 100
3,O=c1cc(-c2ccccc2)c2ccc(O)c(CN(CCCl)CCCl)c2o1,25
4,CC1=C(O)C(=O)C(C2=C(O)C(=O)C(C)=C(O)C2=O)=C(O)C1=O,> 100

# System: HCT-116 colon
# Test: DTP human tumour cell line panel, 48 h
row,SMILES,TGI [µM]
1,CCOC(=O)C1C(O)CC2c3ccccc3-c3ccccc3C21 (stereo unspecified),41.4
2,CC/C=C/C[C@H](O[Si](C)(C)C(C)(C)C)[C@H]1C[C@H]2O[C@H]([C@@H](O)C#C[Si](C)(C)C)C[C@H]2O1,24.5
3,COc1ccc(NC2=NCCO2)c2c1CCCC2,> 100
4,O=c1cc(-c2ccccc2)c2ccc(O)c(CN(CCCl)CCCl)c2o1,43.1
5,CC1=C(O)C(=O)C(C2=C(O)C(=O)C(C)=C(O)C2=O)=C(O)C1=O,> 100

# System: HCT-15 colon
# Test: DTP human tumour cell line panel, 48 h
row,SMILES,TGI [µM]
1,CCOC(=O)C1C(O)CC2c3ccccc3-c3ccccc3C21 (stereo unspecified),> 100
2,CC/C=C/C[C@H](O[Si](C)(C)C(C)(C)C)[C@H]1C[C@H]2O[C@H]([C@@H](O)C#C[Si](C)(C)C)C[C@H]2O1,26.6
3,COc1ccc(NC2=NCCO2)c2c1CCCC2,> 100
4,O=c1cc(-c2ccccc2)c2ccc(O)c(CN(CCCl)CCCl)c2o1,45.2
5,CC1=C(O)C(=O)C(C2=C(O)C(=O)C(C)=C(O)C2=O)=C(O)C1=O,> 100

# System: HL-60(TB) leukemia
# Test: DTP human tumour cell line panel, 48 h
row,SMILES,TGI [µM]
1,CCOC(=O)C1C(O)CC2c3ccccc3-c3ccccc3C21 (stereo unspecified),> 100
2,CC/C=C/C[C@H](O[Si](C)(C)C(C)(C)C)[C@H]1C[C@H]2O[C@H]([C@@H](O)C#C[Si](C)(C)C)C[C@H]2O1,> 100
3,COc1ccc(NC2=NCCO2)c2c1CCCC2,40
4,O=c1cc(-c2ccccc2)c2ccc(O)c(CN(CCCl)CCCl)c2o1,40.4
5,CC1=C(O)C(=O)C(C2=C(O)C(=O)C(C)=C(O)C2=O)=C(O)C1=O,> 100

# System: HOP-62 NSCLC
# Test: DTP human tumour cell line panel, 48 h
row,SMILES,TGI [µM]
1,CCOC(=O)C1C(O)CC2c3ccccc3-c3ccccc3C21 (stereo unspecified),91.2
2,CC/C=C/C[C@H](O[Si](C)(C)C(C)(C)C)[C@H]1C[C@H]2O[C@H]([C@@H](O)C#C[Si](C)(C)C)C[C@H]2O1,30.4
3,O=c1cc(-c2ccccc2)c2ccc(O)c(CN(CCCl)CCCl)c2o1,33.2
